In this experiment the target is alkaline phosphatase, placental type (Homo sapiens). The experiment is described as follows: PLAP enzyme inhibitors, dose response, selectivity assay for mouse IAP inhibitor project, biochemical, uHTS hits (AID 488879). The conditions noted are these: purified human placental alkaline phosphatase, enzymatic inhibition.

Calls of active or inactive are those of the source. No rule for the calls is given here. Some results are limits rather than exact numbers.

In general, IC50 refers to the midpoint of a concentration-inhibition curve.

Turning to `C#CCOCCOCCOCCNc1nc(N2CCN(C(=O)CCCCCCCCCCNC(=O)[C@H](CO)n3cc(CCCSC)nn3)CC2)nc(N2CCN(C(=O)CCCCCCCCCCNC(=O)[C@H](CCCN=C(N)N)n3cc(C[C@@H](C)CC)nn3)CC2)n1`, the IC50 was > 100 µM (inactive). Regarding `CCOc1ccccc1N1CCN(S(=O)(=O)c2ccc3c4c(cccc24)C(=O)N3)CC1`, the IC50 was > 100 µM (inactive).

In the case of `O=C(NN1C(=O)/C(=C/C=C/c2ccco2)SC1=S)c1ccccc1O`, the IC50 is 27.2 µM.

For the compound `COc1cccc(NC(=O)CN(C)S(=O)(=O)c2ccc3[nH]c(=O)oc3c2)c1`, the IC50 was > 100 µM (inactive). For `C=CCn1cc(CN2CCC(C(=O)Nc3cccc(-c4cccc(Cl)c4)c3)CC2)c(C)n1`, the IC50 is 34.3 µM. Take `O=C(COC(=O)COc1ccccc1)Nc1ncc([N+](=O)[O-])s1`: the IC50 was > 100 µM (inactive). For `Cc1c(Cl)cccc1NC(=S)NCCC(c1ccccc1)c1ccccc1`, the IC50 is > 100 µM (inactive). As for `CC(C(=O)O)N1C(=O)/C(=C/C=C/c2ccco2)SC1=S` (stereo not given), the IC50 was > 100 µM (inactive). For the compound `O=C(N/N=C/c1cccnc1)c1cc(O)c(O)c(O)c1`, the IC50 is > 100 µM (inactive). Take `CCn1cc(CN2CCC(C(=O)Nc3cccc(-c4cccc(Cl)c4)c3)CC2)c(C)n1`: the IC50 is > 100 µM (inactive). For the compound `CCOC(=O)c1ccc(N2CCN(c3ccccc3F)CC2)c(NC(=O)Nc2ccccc2)c1`, the IC50 was > 100 µM (inactive). For `CCOc1ccccc1CNC(=O)CCNS(=O)(=O)c1ccc2[nH]c(=O)oc2c1` the value was > 100 µM (inactive); for `O=C(NC1CCCCC1)Oc1cc2oc(=O)sc2cc1Cl`, 5.95 µM. Consider `O=S(=O)(c1ccc(NC(=S)N/N=C/c2ccc(O)c(O)c2)cc1)N1CCOCC1`, for which the half-inhibitory concentration (IC50) is 2.35 µM. In the case of `COC(=O)c1ccc(NS(=O)(=O)c2ccc3[nH]c(=O)oc3c2)cc1`, the IC50 is > 100 µM (inactive).

With `CCN(C(=O)C(C)N1C(=O)/C(=C/c2ccco2)SC1=S)C1CCS(=O)(=O)C1` (stereo not given), the IC50 is 7.78 µM. Turning to `COc1cc(/C=N/NC(=O)c2cc(O)cc(O)c2)ccc1OC(=O)c1ccccc1`, the IC50 was 70.1 µM. `Cc1nn(C(C)C)c(C)c1CN1CCC(C(=O)Nc2cccc(-c3cccc(F)c3)c2)CC1`: the IC50 is 56.6 µM. To `COc1cc(OC)c2c(c1O)OC(c1ccccc1)CC2=O` (stereo not given) belongs > 100 µM (inactive).

On to `COc1cc(/C=C/C(O)=C/C(=O)/C=C/c2ccc(O)cc2)ccc1O`, for which the IC50 was > 100 µM (inactive). On to `O=C(NN1C(=O)/C(=C/c2ccc(O)cc2)SC1=S)c1ccccc1O`, for which the IC50 was > 100 µM (inactive).

Regarding `CCOC(=O)c1ccc(N2CCN(c3ccccc3F)CC2)c(NC(=O)Nc2cccc(OC)c2)c1`, the IC50 is > 100 µM (inactive).

With `NS(=O)(=O)c1cc(C(=O)N=Nc2c(O)[nH]c3ccccc23)ccc1Cl`, the IC50 is > 100 µM (inactive). Take `Cc1ccc(NC(=S)NCc2ccccc2)cc1S(=O)(=O)N1CCCCC1`: the IC50 was > 100 µM (inactive). Turning to `COc1cc(/C=N/N2C(=O)CSC2=S)ccc1O`, the IC50 was > 100 µM (inactive).

Consider `Cc1cc(O)c(Sc2ncn[nH]2)cc1NS(=O)(=O)c1ccc(Cl)cc1`, for which the IC50 is > 100 µM (inactive). As to `Cc1ccc(C)c(NS(=O)(=O)c2ccc3[nH]c(=O)oc3c2)c1`, the IC50 is > 100 µM (inactive). On to `N#Cc1c(SCC(=O)Nc2nncs2)sc2c(O)cc(=O)[nH]c12`, for which the IC50 is > 100 µM (inactive). For `NS(=O)(=O)c1cccc(NC(=O)CSc2nnc(-c3ccncc3)n2C2CC2)c1`, the IC50 was > 100 µM (inactive).

Consider `O=[N+]([O-])c1ccccc1NC(=S)N/N=C/c1ccc(O)c(O)c1`, for which the IC50 was > 100 µM (inactive). As to `COc1cc(/C=C/[N+](=O)[O-])ccc1OC(=O)c1cc2ccccc2oc1=O`, the IC50 is > 100 µM (inactive). Turning to `O=C(NCCCCc1ccccc1)NC[C@@H]1CC[C@@H](Cc2ccc(-c3ccccc3)cc2)O1`, the IC50 was 6.58 µM. Take `O=C(Nc1cccc(-c2cccc(Cl)c2)c1)C1CCN(C2CCC2)CC1`: the IC50 is 10.2 µM. As for `CCCCCOc1ccc(C(=O)CCC(=O)NNC(=O)c2ccncc2)cc1`, the IC50 is > 100 µM (inactive). Turning to `COCc1ccc(CN2CCC(C(=O)Nc3cccc(-c4cccc(Cl)c4)c3)CC2)o1`, the IC50 is > 100 µM (inactive). `Cc1ccc(CN2C3CCCC2CC(NC(=O)Nc2cccc(F)c2)C3)cc1` (stereo not given): the IC50 is > 100 µM (inactive).

On to `NC1=NC(=O)/C(=C\c2ccco2)S1`, for which the IC50 was 32 µM. In the case of `CCOC(=O)C1=C(C)N=c2s/c(=C/c3cccc([N+](=O)[O-])c3O)c(=O)n2C1c1ccc(OC)cc1OC` (stereo not given), the IC50 is > 100 µM (inactive).

`OCCCN1c2ccccc2Nc2nnc(-c3ccccc3)cc21`: the IC50 was > 100 µM (inactive). `CCN(c1ccccc1)S(=O)(=O)c1ccc2[nH]c(=O)[nH]c2c1`: the IC50 was 62.6 µM.

(Values after PubChem BioAssay AID488879 (Sanford-Burnham Center for Chemical Genomics, 2010).)
